This passage reports EC50 results from patent US20090226398A1, “ANTI-VIRAL COMPOUNDS, COMPOSITIONS, AND METHODS OF USE” (Genelabs Technologies, Inc., priority 2008, published 2009).

In this experiment the test system is HCV replication. Briefly: Replicon Assay (Huh-lucubineo-ET cells, luciferase readout). The following applies: Hepatitis C virus; ET (Huh-lucubineo-ET) HCV replicon cell line; luciferase activity 48-72 hours after compound addition; 6 dilutions. In kind it is cell-based. The protocol:
A cell line, ET (Huh-lucubineo-ET) was used for screening of compounds of the present invention for inhibition of HCV replication. The ET cell line was stably transfected with RNA transcripts harboring a I389luc-ubi-neo/NS3-3′/ET; replicon with firefly luciferase-ubiquitin-neomycin phosphotransferase fusion protein and EMCV-IRES driven NS3-5B polyprotein containing the cell culture adaptive mutations (E1202G; T1280I; K1846T) (Krieger at al, 2001 and unpublished). The ET cells were grown in DMEM, supplemented with 10% fetal calf serum, 2 mM Glutamine, Penicillin (100 IU/mL)/Streptomycin (100 μg/mL), 1× nonessential amino acids, and 250 μg/mL G418 (“Geneticin”). They were all available through Life Technologies (Bethesda, Md.). The cells were plated at 0.5−1.0×10^4 cells/well in the 96 well plates and incubated for 24 hrs before adding the test compounds. The compounds were then added to the cells to achieve a final concentration of 5 or 50 μM. Luciferase activity was measured 48-72 hours later by adding a lysis buffer and the substrate (Catalog number Glo-lysis buffer E2661 and Bright-Glo luciferase system E2620 Promega, Madison, Wis.). Cells should not be too confluent during the assay. Percent inhibition of replication was plotted relative to no compound control. For EC50 (effective concentration at which 50% of the maximum inhibition is observed) determinations, 6 dilutions of each compound were used. Compounds were typically diluted 3 fold to span a concentration range of 250 fold. EC50 and similarly TC50 values were calculated by fitting % inhibition at each concentration to the following equation:
% inhibition=100%/[(EC50/[I])^b+1]
where b is Hill's coefficient.

One may read the EC50 as the concentration that produces a half-maximal response. A higher EC50 goes with lower potency in that assay.

`COc1cccc(Cn2cc3nc(-c4cccc(F)c4F)nc-3cn2)c1` [Compound 287, 2-(2,3-Difluoro-phenyl)-5-(3-methoxy-benzyl)-5H-imidazo[4,5-d]pyridazine]: the EC50 was not below 50 µM.

`CCCOc1ccc(-c2ccc(Cn3cc4nc(-c5cccc(F)c5F)nc-4cn3)nc2)cc1` [Compound 247, 2-(2,3-Difluoro-phenyl)-5-[5-(4-propoxy-phenyl)-pyridin-2-ylmethyl]-5H-imidazo[4,5-d]pyridazine] had an EC50 of 5.08 µM.

The molecule `Fc1cccc(-c2nc3cnn(Cc4ccc(-c5ccc(-c6ccncc6)cc5C(F)(F)F)nn4)cc-3n2)c1F` [Compound 210, 2-(2,3-Difluoro-phenyl)-5-[6-(4-pyridin-4-yl-2-trifluoromethyl-phenyl)-pyridazin-3-ylmethyl]-5H-imidazo[4,5-d]pyridazine] showed an EC50 of 0.735 µM.

With `COc1ccc(-c2ccc(Cn3cc4nc(-c5cccc(F)c5F)nc-4cn3)c(Cl)n2)c(C(F)(F)F)c1` [Compound 255, 5-[2-Chloro-6-(4-methoxy-2-trifluoromethyl-phenyl)-pyridin-3-ylmethyl]-2-(2,3-difluoro-phenyl)-5H-imidazo[4,5-d]pyridazine], the EC50 came to 0.069 µM. Compared with the last molecule, the EC50 is about 11-fold lower.

`CC[C@H](C)COc1ccc(-c2ccc(Cn3cc4nc(-c5cccc(F)c5F)nc-4cn3)nn2)c(C(F)(F)F)c1` [Compound 321, 2-(2,3-Difluoro-phenyl)-5-{6-[4-(2-methyl-butoxy)-2-trifluoromethyl-phenyl]-pyridazin-3-ylmethyl}-5H-imidazo[4,5-d]pyridazine] came in with an EC50 of 0.045 µM.

As to `Fc1cccc(-c2nc3cnn(Cc4ccc(N5CCOCC5)nn4)cc-3n2)c1F` [Compound 355, 2-(2,3-Difluoro-phenyl)-5-(6-morpholin-4-yl-pyridazin-3-ylmethyl)-5H-imidazo[4,5-d]pyridazine], the EC50 is not below 50 µM.

Molecule `Fc1cccc(-c2nc3cnn(Cc4ccc(/C=C/c5ccccc5)cc4)cc-3n2)c1F` [Compound 281, 2-(2,3-Difluoro-phenyl)-5-(4-styrylbenzyl)-5H-imidazo[4,5-d]pyridazine] registered an EC50 of 1.8 µM.

The molecule `CC(O)COc1ccc(-c2ccc(Cn3cc4nc(-c5cccc(F)c5F)nc-4cn3)nn2)c(C(F)(F)F)c1` (stereo not shown) [Compound 319, 1-(4-{6-[2-(2,3-Difluoro-phenyl)-imidazo[4,5-d]pyridazin-5-ylmethyl]-pyridazin-3-yl}-3-trifluoromethyl-phenoxy)-propan-2-ol] yielded an EC50 of 4.52 µM.

The molecule `Fc1cccc(-c2nc3cnn(CCCCc4ccc(C(F)(F)F)cc4C(F)(F)F)cc-3n2)c1F` [Compound 269, 5-[4-(2,4-Bis-trifluoromethyl-phenyl)-butyl]-2-(2,3-difluoro-phenyl)-5H-imidazo[4,5-d]pyridazine] came in with an EC50 of 25 µM.

On to `COC(=O)c1cc(Br)ccc1Cn1cc2nc(-c3cccc(F)c3F)nc-2cn1` [Compound 312, 5-Bromo-2-[2-(2,3-difluoro-phenyl)-imidazo[4,5-d]pyridazin-5-ylmethyl]-benzoic acid methyl ester], for which the EC50 was not below 50 µM.

In turn, `CCCCOc1ccc(-c2ccc(Cn3cc4nc(-c5cccc(F)c5F)nc-4cn3)nn2)cc1` [Compound 223, 5-[6-(4-Butoxy-phenyl)-pyridazin-3-ylmethyl]-2-(2,3-difluoro-phenyl)-5H-imidazo[4,5-d]pyridazine] yielded an EC50 of 49 µM.

Turning to `CC(C)(C)c1ccc(-c2ccc(Cn3cc4nc(-c5cccc(F)c5F)nc-4cn3)nn2)cc1` [Compound 215, 5-[6-(4-tert-Butyl-phenyl)-pyridazin-3-ylmethyl]-2-(2,3-difluoro-phenyl)-5H-imidazo[4,5-d]pyridazine], a half-maximal effect (EC50) was put at 11.6 µM.

For `Fc1cccc(-c2nc3cnn(Cc4cccc(-n5cccn5)c4)cc-3n2)c1F` [Compound 291, 2-(2,3-Difluoro-phenyl)-5-(3-pyrazol-1-yl-benzyl)-5H-imidazo[4,5-d]pyridazine], the EC50 is not below 50 µM.
